Reference: PubChem BioAssay (NCI)
Values joined by “and” are separate entries in the source; they are usually repeats but may differ in a detail not shown here. Identical values can stand only once.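 These data come from cells grown in 96-well plates and exposed to compound for 48 hours at five concentrations. GI50 is the concentration that inhibits growth by half. Definition used: TGI = concentration required for complete inhibition of growth.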

How the values were obtained:
Test in all cases: growth of human tumour cells (NCI), 48 h
[1] = test system: SK-MEL-28 melanoma
[2] = test system: UACC-257 melanoma
[3] = test system: SN12C renal
[4] = test system: MALME-3M melanoma
[5] = test system: OVCAR-5 ovarian
[6] = test system: SR leukemia
[7] = test system: OVCAR-8 ovarian
[8] = test system: NCI-H226 lung
[9] = test system: PC-3 prostate
[10] = test system: T-47D breast

Compound | TGI [1] [µM] | TGI [2] | TGI [3] [µM] | TGI [4] | TGI [5] [µM] | TGI [6] [µM] | TGI [7] [µM] | GI50 [2] [µM] | GI50 [4] [µM] | TGI [8] [µM] | TGI [9] [µM] | GI50 [1] [µM] | GI50 [3] [µM] | GI50 [7] [µM] | GI50 [9] [µM] | GI50 [8] [µM] | GI50 [5] [µM] | GI50 [10] [µM] | TGI [10] [µM] | GI50 [6] [µM]
CC(C)(C)NCc1cc(C(C)(C)C)cc(-c2ccc(Cl)cc2)c1O | 28.2 | 50.3 µM | 30.3 | 27.8 µM | 28.2 | 40.4 |  |  |  |  |  |  |  |  |  |  |  |  |  | 
Cc1ccc(S(=O)(=O)NC(=O)NC23CC4CC(CC(F)(C4)C2)C3)cc1 | > 100 | > 100 µM |  | > 100 µM | > 100 |  | > 100 |  |  |  |  |  |  |  |  |  |  |  |  | 
CO/C1=C\C(C)=C\C(C)C(O)C(C)C/C(C)=C/C=C/C(OC)C(C(C)C(O)C(C)C2(O)CC(O)C(C)C(C(C)C)O2)OC1=O (stereo not drawn) | 23.5 | 0.0699 µM and 0.0653 µM | 17.6 | 0.0914 µM and 0.0629 µM |  |  | 10.4 | 0.0248 | 0.0237 |  |  |  |  |  |  |  |  |  |  | 
COc1cccc(C(=O)N2CCc3ccccc32)c1OC | > 100 | > 100 µM | > 100 | > 100 µM | > 100 | > 100 | > 100 |  |  | > 100 |  |  |  |  |  |  |  |  |  | 
CCOC(=O)C1(Cc2ccccc2)CCCCCN1 (stereo not drawn) | > 100 |  | > 100 | > 100 µM |  |  | > 100 |  |  |  |  |  |  |  |  |  |  |  |  | 
COC(=O)c1sc(C(=O)OC)c2c1CSC2 | > 100 | > 100 µM | > 100 | > 100 µM | > 100 | > 100 | > 100 |  |  | > 100 | > 100 |  |  |  |  |  |  |  |  | 
NC(=O)N/N=C/C(/C=N/NC(N)=O)[N+](=O)[O-] | > 100 | > 100 µM | > 100 | > 100 µM | > 100 |  |  |  |  | > 100 |  |  |  |  |  |  |  |  |  | 
C1CCN(c2nsc(N3CCCCC3)n2)CC1 | > 100 | > 100 µM | > 100 | > 100 µM | > 100 | > 100 | > 100 |  |  | > 100 |  |  |  |  |  |  |  |  |  | 
O=C(O)/C(=C/c1c(O)ccc2ccccc12)c1csc(-c2nc(/C(=C\c3c(O)ccc4ccccc34)C(=O)O)cs2)n1 | 32.1 | 40.9 µM |  | 3.95 µM | 31.9 |  | 49.4 |  |  | 7.39 |  |  |  |  |  |  |  |  |  | 
COc1ccc2c(c1OC)C1=C(C2=O)c2cc3c(cc2CCN1)OCO3 | > 100 | > 100 µM | > 100 | > 100 µM | 97.4 | 55 | > 100 |  |  | 9.58 |  |  |  |  |  |  |  |  |  | 
Nc1ccc2c(c1)NCCN2 | > 100 | > 100 µM | > 100 | > 100 µM | > 100 | > 100 | > 100 |  |  | 52.2 | > 100 |  |  |  |  |  |  |  |  | 
O=C1C[C@@H]2C(COC(=O)c3ccccc3)N(OCc3ccccc3)C[C@@H]2O1 (stereo partly drawn) | > 100 | > 100 µM | > 100 | > 100 µM | > 100 | > 100 | > 100 |  |  | > 100 |  |  |  |  |  |  |  |  |  | 
COc1cc2noc(-c3ccccc3)c2cc1OC |  | > 100 µM | > 100 | > 100 µM | 94 | > 100 | > 100 |  |  | > 100 |  |  |  |  |  |  |  |  |  | 
CCOC(=O)c1[nH]c(-c2ccc(Cl)cc2)cc1-c1cccnc1 | > 100 | > 100 µM | > 100 |  | > 100 |  | > 100 | > 100 |  | > 100 | > 100 | 0.982 | 1.44 | 2.51 | 0.325 | 17.3 | 1.17 | 0.612 | > 100 | 
COCC(=O)CP(=O)(OC)OC | > 100 | > 100 µM | > 100 | > 100 µM | > 100 |  | > 100 |  |  |  |  |  |  |  |  |  |  |  |  | 
Cc1c(C(=O)c2ccccc2C(=O)O)c2ccccc2n1C | > 100 | > 100 µM |  | > 100 µM | > 100 |  | > 100 |  |  | > 100 |  |  |  |  |  |  |  |  |  | 
O=c1cc2ccccc2nn1Cc1ccccc1Cl | > 100 | > 100 µM | > 100 | > 100 µM | > 100 |  | > 100 |  |  | > 100 |  |  |  |  |  |  |  |  |  | 
Cn1c(=O)nc2n(-c3cccc(F)c3)c3ccccc3nc-2c1=O |  | 28.1 µM | 73.9 | 28.2 µM | 74.4 |  | 77.1 |  |  | > 100 |  |  |  |  |  |  |  |  |  | 
CCNC(=O)C#CC(=O)NCC | > 100 | > 100 µM | > 100 | > 100 µM | > 100 | > 61.4 | > 100 | > 10 | > 100 | > 100 |  | > 100 | > 10 | > 10 |  | > 100 | > 10 |  |  | > 10
